From ChEMBL document CHEMBL6103641, “Palladium-Catalyzed Late-Stage Functionalization of Natural Antitumor Drug: Synthesis and Bioactivity of 5-Aryl Camptothecins” (J Nat Prod, 2025)
pIC50: −log10 of the molar value. The source made the active and inactive calls. The calls are words filed in the database; no cut-off is given here.

Assays:
[1] = system: HCT-116; assay: Cytotoxicity against human HCT-116 cells assessed as inhibition of cell viability incubated for 24 hrs by MTT assay; assay type: functional, cell-based; settings: HCT-116, 24 h
[2] = system: MCF7; assay: Cytotoxicity against human MCF7 cells assessed as inhibition of cell viability incubated for 24 hrs by MTT assay; assay type: functional, cell-based; settings: MCF7, 24 h
[3] = system: A549; assay: Cytotoxicity against human A549 cells assessed as inhibition of cell viability incubated for 24 hrs by MTT assay; assay type: functional, cell-based; settings: A549, 24 h
[4] = system: MCF7; assay: Antiproliferative activity against human MCF7 cells assessed as inhibition of colony growth incubated for 24 hrs by crystal violet staining based analysis; assay type: functional, cell-based; settings: dose 0.25-2 µM
[5] = system: MCF7; assay: Antiproliferative activity against human MCF7 cells assessed as inhibition of colony growth at 2 uM incubated for 24 hrs by crystal violet staining based analysis; assay type: functional, cell-based
[6] = system: MCF7; assay: Induction of apoptosis in human MCF7 cells at 2 uM incubated for 24 hrs by Annexin V-FITC/PI staining based flow cytometric analysis; assay type: functional, cell-based
[7] = system: MCF7; assay: Induction of cell cycle arrest in human MCF7 cells assessed as accumulation at G2/M phase at 0.25 to 2 uM incubated for 24 hrs by PI staining based flow cytometry; assay type: functional; settings: dose 0.25-2 µM
[8] = system: HCT-116; assay: Induction of apoptosis in human HCT-116 cells assessed as downregulation of Bcl-2 expression at 0.25 to 2 uM incubated for 24 hrs by western blot analysis; assay type: functional, cell-based; settings: dose 0.25-2 µM
[9] = system: HCT-116; assay: Induction of apoptosis in human HCT-116 cells assessed as upregulation of Bax expression at 0.25 to 2 uM incubated for 24 hrs by western blot analysis; assay type: functional, cell-based; settings: dose 0.25-2 µM
[10] = system: HCT-116; assay: Induction of apoptosis in human HCT-116 cells at 2 uM incubated for 24 hrs by Annexin V-FITC/PI staining based flow cytometric analysis; assay type: functional, cell-based
[11] = system: HCT-116; assay: Induction of cell cycle arrest in human HCT-116 cells assessed as accumulation at G2/M phase at 0.25 to 2 uM incubated for 24 hrs by PI staining based flow cytometry; assay type: functional; settings: dose 0.25-2 µM
[12] = system: HCT-116; assay: Induction of apoptosis in human HCT-116 cells assessed as upregulation of cleaved caspase-3 expression at 0.25 to 2 uM incubated for 24 hrs by western blot analysis; assay type: functional, cell-based; settings: dose 0.25-2 µM
[13] = system: HCT-116; assay: Antiproliferative activity against human HCT-116 cells assessed as inhibition of colony growth at 2 uM incubated for 24 hrs by crystal violet staining based analysis; assay type: functional, cell-based
[14] = system: HCT-116; assay: Antiproliferative activity against human HCT-116 cells assessed as inhibition of colony growth incubated for 24 hrs by crystal violet staining based analysis; assay type: functional, cell-based; settings: dose 0.25-2 µM

| SMILES | pIC50 [1] | pIC50 [2] | pIC50 [3] | other results |
| --- | --- | --- | --- | --- |
| CC[C@@]1(O)C(=O)OCc2c1cc1n(c2=O)[C@@H](c2cccc(OC)c2)c2cc3ccccc3nc2-1 | < 5.00 | < 5.00 | 5.96 | – |
| CCOC(=O)/C=C/C[C@H]1c2cc3ccccc3nc2-c2cc3c(c(=O)n21)COC(=O)[C@]3(O)CC | 6.40 | < 5.00 | 8.00 | – |
| CCc1ccc(-c2ccc([C@@H]3c4cc5ccccc5nc4-c4cc5c(c(=O)n43)COC(=O)[C@]5(O)CC)cc2)cc1 | 6.70 | < 5.00 | 6.10 | – |
| CC[C@@]1(O)C(=O)OCc2c1cc1n(c2=O)[C@@H](c2ccc(Cl)cc2)c2cc3ccccc3nc2-1 | < 5.00 | < 5.00 | < 5.00 | – |
| CC[C@@]1(O)C(=O)OCc2c1cc1n(c2=O)[C@H](c2c(OC)cccc2OC)c2cc3ccccc3nc2-1 | < 5.00 | 6.40 | < 5.00 | – |
| CC[C@@]1(O)C(=O)OCc2c1cc1n(c2=O)[C@@H](c2c(C)cccc2C)c2cc3ccccc3nc2-1 | 5.96 | < 5.00 | < 5.00 | – |
| CC[C@@]1(O)C(=O)OCc2c1cc1n(c2=O)[C@H](c2cc(C)cc(C)c2)c2cc3ccccc3nc2-1 | < 5.00 | 7.40 | < 5.00 | Activity [4]: Dose-dependent-effect; Activity [5]: Active; Superior Activity Compared To Camptothecin Observed; Activity [6]: Active; Superior Activity Compared To Camptothecin Observed; Activity [7]: Active |
| CC[C@@]1(O)C(=O)OCc2c1cc1n(c2=O)[C@H](c2ccccc2C(C)C)c2cc3ccccc3nc2-1 | 7.00 | 5.04 | 8.00 | – |
| CC[C@@]1(O)C(=O)OCc2c1cc1n(c2=O)[C@@H](c2cc(C)cc(C)c2)c2cc3ccccc3nc2-1 | < 5.00 | 6.80 | < 5.00 | – |
| CC[C@@]1(O)C(=O)OCc2c1cc1n(c2=O)[C@@H](c2cccc(-c3ccccc3)c2)c2cc3ccccc3nc2-1 | < 5.00 | < 5.00 | 5.05 | – |
| CC[C@@]1(O)C(=O)OCc2c1cc1n(c2=O)[C@@H](c2cccc(C(F)(F)F)c2)c2cc3ccccc3nc2-1 | < 5.00 | < 5.00 | < 5.00 | – |
| CC[C@@]1(O)C(=O)OCc2c1cc1n(c2=O)[C@H](c2ccccc2C)c2cc3ccccc3nc2-1 | 6.70 | < 5.00 | < 5.00 | – |
| C=CC[C@H]1c2cc3ccccc3nc2-c2cc3c(c(=O)n21)COC(=O)[C@]3(O)CC | 6.40 | < 5.00 | < 5.00 | – |
| C=Cc1ccc([C@@H]2c3cc4ccccc4nc3-c3cc4c(c(=O)n32)COC(=O)[C@]4(O)CC)cc1 | 6.05 | 7.00 | < 5.00 | – |
| CC[C@@]1(O)C(=O)OCc2c1cc1n(c2=O)[C@H](c2cccc(CBr)c2)c2cc3ccccc3nc2-1 | 5.03 | < 5.00 | 5.96 | – |
| CC[C@@]1(O)C(=O)OCc2c1cc1n(c2=O)[C@H](c2ccc(-c3cccc4ccccc34)cc2)c2cc3ccccc3nc2-1 | 6.15 | 5.96 | < 5.00 | – |
| CC[C@@]1(O)C(=O)OCc2c1cc1n(c2=O)[C@H](c2c(C)cccc2C)c2cc3ccccc3nc2-1 | 6.52 | < 5.00 | < 5.00 | – |
| CC[C@@]1(O)C(=O)OCc2c1cc1n(c2=O)[C@H](c2ccccc2Cl)c2cc3ccccc3nc2-1 | < 5.00 | 6.22 | < 5.00 | – |
| CCOc1ccc([C@@H]2c3cc4ccccc4nc3-c3cc4c(c(=O)n32)COC(=O)[C@]4(O)CC)cc1 | < 5.00 | < 5.00 | 7.00 | – |
| CC[C@@]1(O)C(=O)OCc2c1cc1n(c2=O)[C@@H](c2cccc(F)c2C)c2cc3ccccc3nc2-1 | 6.05 | < 5.00 | 8.00 | – |
| CCOc1ccc([C@H]2c3cc4ccccc4nc3-c3cc4c(c(=O)n32)COC(=O)[C@]4(O)CC)cc1 | < 5.00 | < 5.00 | 7.00 | – |
| CC[C@@]1(O)C(=O)OCc2c1cc1n(c2=O)[C@H](c2ccccc2F)c2cc3ccccc3nc2-1 | 6.30 | < 5.00 | 8.00 | – |
| CC[C@@]1(O)C(=O)OCc2c1cc1n(c2=O)[C@H](c2ccc3c(c2)OCO3)c2cc3ccccc3nc2-1 | 7.30 | < 5.00 | 7.00 | – |

| SMILES | pIC50 [1] | pIC50 [2] | pIC50 [3] | other results |
| --- | --- | --- | --- | --- |
| CC[C@@]1(O)C(=O)OCc2c1cc1n(c2=O)[C@@H](c2ccccc2C)c2cc3ccccc3nc2-1 | 6.70 | < 5.00 | < 5.00 | – |
| CC[C@@]1(O)C(=O)OCc2c1cc1n(c2=O)[C@H](CC=C(C)C)c2cc3ccccc3nc2-1 | 6.22 | 7.00 | 5.92 | – |
| CC[C@@]1(O)C(=O)OCc2c1cc1n(c2=O)[C@@H](c2ccc(-c3cccc4ccccc34)cc2)c2cc3ccccc3nc2-1 | < 5.00 | < 5.00 | < 5.00 | – |
| CC[C@@]1(O)C(=O)OCc2c1cc1n(c2=O)[C@@H](CC=C(C)C)c2cc3ccccc3nc2-1 | 6.30 | 7.22 | 7.70 | – |
| CC[C@@]1(O)C(=O)OCc2c1cc1n(c2=O)[C@@H](c2ccccc2C(C)C)c2cc3ccccc3nc2-1 | 6.22 | < 5.00 | 8.00 | – |
| CC[C@@]1(O)C(=O)OCc2c1cc1n(c2=O)[C@@H](c2c(OC)cccc2OC)c2cc3ccccc3nc2-1 | 7.30 | 6.40 | < 5.00 | Activity [8]: Active; Activity [9]: Active; Activity [10]: Active; Superior Activity Compared To Camptothecin Observed; Activity [11]: Active; Activity [12]: Active; Activity [13]: Active; Superior Activity Compared To Camptothecin Observed; Activity [14]: Dose-dependent-effect |
| CC[C@@]1(O)C(=O)OCc2c1cc1n(c2=O)Cc2cc3ccccc3nc2-1 [CAMPTOTHECIN] | 6.52 | 6.05 | 6.52 | – |
| C=Cc1ccc([C@H]2c3cc4ccccc4nc3-c3cc4c(c(=O)n32)COC(=O)[C@]4(O)CC)cc1 | 6.10 | 6.22 | < 5.00 | – |
| CC[C@@]1(O)C(=O)OCc2c1cc1n(c2=O)[C@H](c2ccc3c(c2)OCCO3)c2cc3ccccc3nc2-1 | 7.10 | < 5.00 | 7.00 | – |
| CC[C@@]1(O)C(=O)OCc2c1cc1n(c2=O)[C@@H](c2ccc3c(c2)OCO3)c2cc3ccccc3nc2-1 | < 5.00 | < 5.00 | 6.30 | – |
| CC[C@@]1(O)C(=O)OCc2c1cc1n(c2=O)[C@H](c2cccc(F)c2C)c2cc3ccccc3nc2-1 | 4.98 | < 5.00 | 8.00 | – |
| CC[C@@]1(O)C(=O)OCc2c1cc1n(c2=O)[C@@H](c2ccc(F)cc2)c2cc3ccccc3nc2-1 | < 5.00 | 7.00 | < 5.00 | – |
| CC[C@@]1(O)C(=O)OCc2c1cc1n(c2=O)[C@H](c2ccc(Cl)cc2)c2cc3ccccc3nc2-1 | 6.22 | < 5.00 | < 5.00 | – |
| CC[C@@]1(O)C(=O)OCc2c1cc1n(c2=O)[C@H](c2cccc(-c3ccccc3)c2)c2cc3ccccc3nc2-1 | < 5.00 | < 5.00 | 6.05 | – |
| C=CC[C@@H]1c2cc3ccccc3nc2-c2cc3c(c(=O)n21)COC(=O)[C@]3(O)CC | 6.52 | 6.05 | < 5.00 | – |
| CC[C@@]1(O)C(=O)OCc2c1cc1n(c2=O)[C@@H](c2ccccc2Cl)c2cc3ccccc3nc2-1 | < 5.00 | 7.00 | < 5.00 | – |
| CC[C@@]1(O)C(=O)OCc2c1cc1n(c2=O)[C@H](c2cccc(C(F)(F)F)c2)c2cc3ccccc3nc2-1 | 5.92 | 7.15 | < 5.00 | – |
| CC[C@@]1(O)C(=O)OCc2c1cc1n(c2=O)[C@H](c2ccc3ccccc3c2)c2cc3ccccc3nc2-1 | < 5.00 | < 5.00 | 6.15 | – |
| CC[C@@]1(O)C(=O)OCc2c1cc1n(c2=O)[C@H](c2ccc(F)cc2)c2cc3ccccc3nc2-1 | < 5.00 | 7.00 | 6.40 | – |
| CC[C@@]1(O)C(=O)OCc2c1cc1n(c2=O)[C@@H](c2ccccc2F)c2cc3ccccc3nc2-1 | < 5.00 | < 5.00 | 7.40 | – |
| CC[C@@]1(O)C(=O)OCc2c1cc1n(c2=O)[C@H](c2ccc(C(C)(C)C)cc2)c2cc3ccccc3nc2-1 | 6.70 | < 5.00 | < 5.00 | – |
| CCOC(=O)/C=C/C[C@@H]1c2cc3ccccc3nc2-c2cc3c(c(=O)n21)COC(=O)[C@]3(O)CC | 6.52 | 6.40 | 8.00 | – |
| CC[C@@]1(O)C(=O)OCc2c1cc1n(c2=O)[C@H](c2cccc(OC)c2)c2cc3ccccc3nc2-1 | < 5.00 | < 5.00 | 6.70 | – |
